From US20210045385A1, “PYRIDAZINONE-SUBSTITUTED KETOXIMES AS HERBICIDES” (FMC Corporation, priority 2018, published 2021)

What was measured:
Type in all cases: in vivo
[1] = tested on: Italian ryegrass (Lolium mutiflorum); assay: Test C preemergence, visual plant response rating
Summary of the method: (§1)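 Visual injury on a 0 (no effect) to 100 (complete control) scale versus untreated controls, scored approximately 10 d after treatment under greenhouse conditions. Treatments used surfactant-containing non-phytotoxic solvent formulations, sprayed onto loam–sand soil preemergence or onto one- to two-leaf plants 2–10 cm tall postemergence.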

[2] = tested on: barnyardgrass (Echinochloa crus-galli); assay: Test C preemergence, visual plant response rating
Summary of the method: as §1

[3] = tested on: foxtail, giant (giant foxtail, Setaria faberi); assay: Test C preemergence, visual plant response rating
Summary of the method: as §1

kochia (Bassia scoparia) [4] = assay: Test C preemergence, visual plant response rating
Summary of the method: as §1

[5] = tested on: pigweed (Amaranthus retroflexus); assay: Test C preemergence, visual plant response rating
Summary of the method: as §1

[6] = tested on: Italian ryegrass (Lolium mutiflorum); assay: Test C postemergence, visual plant response rating
Summary of the method: as §1

[7] = tested on: barnyardgrass (Echinochloa crus-galli); assay: Test C postemergence, visual plant response rating
Summary of the method: as §1

[8] = tested on: blackgrass (Alopecurus myosuroides); assay: Test C postemergence, visual plant response rating
Summary of the method: as §1

corn (Zea mays) = assay: Test C postemergence, visual plant response rating
Summary of the method: as §1

[9] = tested on: foxtail, giant (giant foxtail, Setaria faberi); assay: Test C postemergence, visual plant response rating
Summary of the method: as §1

[10] = tested on: galium (catchweed bedstraw, Galium aparine); assay: Test C postemergence, visual plant response rating
Summary of the method: as §1

kochia (Bassia scoparia) [11] = assay: Test C postemergence, visual plant response rating
Summary of the method: as §1

[12] = tested on: pigweed (Amaranthus retroflexus); assay: Test C postemergence, visual plant response rating
Summary of the method: as §1

[13] = tested on: ragweed (common ragweed, Ambrosia artemisiifolia); assay: Test C postemergence, visual plant response rating
Summary of the method: as §1

[14] = tested on: wheat (Triticum aestivum); assay: Test C postemergence, visual plant response rating
Summary of the method: as §1

[15] = tested on: barnyardgrass (Echinochloa crus-galli); assay: Test D flooded paddy test, visual plant response rating; details: 250 g ai/ha, scale 0 to 100 (0 no effect, 100 complete control), 13 to 15 d
Summary of the method: (§2)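 Rating is visual, on a 0 (no effect) to 100 (complete control) scale versus controls, taken 13 to 15 d after treatment in a greenhouse. Treatment went into paddy water kept 3 cm above the soil surface, with plants at the 2-leaf stage.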

[16] = tested on: duck salad (Heteranthera limosa); assay: as above; details: 250 g ai/ha, scale 0 to 100 (0 no effect, 100 complete control), 13 to 15 d
Summary of the method: as §2

rice (Oryza sativa) = assay: as above; details: 250 g ai/ha, scale 0 to 100 (0 no effect, 100 complete control), 13 to 15 d
Summary of the method: as §2

[17] = tested on: sedge umbrella (small-flower umbrella sedge, Cyperus difformis); assay: as above; details: 250 g ai/ha, scale 0 to 100 (0 no effect, 100 complete control), 13 to 15 d
Summary of the method: as §2

[18] = Test C, 31 g ai/ha, 0 is no effect, 100 is complete control
[19] = Test C, 125 g ai/ha, 0 is no effect, 100 is complete control
[20] = Test C, postemergence, 125 g ai/ha

| Structure (SMILES) | Barnyardgrass plant response rating (0 to 100 scale) [2, 18] | Foxtail, Giant plant response rating (0 to 100 scale) [3, 18] | Pigweed plant response rating (0 to 100 scale) [5, 18] | Ryegrass, Italian plant response rating (0 to 100 scale) ([6]; Postemergence, 31 g ai/ha) | Ryegrass, Italian plant response rating (0 to 100 scale) [6, 20] | Barnyardgrass plant response rating (0 to 100 scale) ([7]; Postemergence, 31 g ai/ha) | Barnyardgrass plant response rating (0 to 100 scale) [7, 20] | Blackgrass plant response rating (0 to 100 scale) ([8]; Postemergence, 31 g ai/ha) | Blackgrass plant response rating (0 to 100 scale) [8, 20] | Corn plant response rating (0 to 100 scale) (corn (Zea mays); Postemergence, 31 g ai/ha) | Corn plant response rating (0 to 100 scale) (corn (Zea mays); [20]) | Foxtail, Giant plant response rating (0 to 100 scale) ([9]; Postemergence, 31 g ai/ha) | Foxtail, Giant plant response rating (0 to 100 scale) [9, 20] | Galium plant response rating (0 to 100 scale) ([10]; Postemergence, 31 g ai/ha) | Galium plant response rating (0 to 100 scale) [10, 20] | Kochia plant response rating (0 to 100 scale) (kochia (Bassia scoparia) [11]; Postemergence, 31 g ai/ha) | Kochia plant response rating (0 to 100 scale) (kochia (Bassia scoparia) [11]; [20]) | Pigweed plant response rating (0 to 100 scale) ([12]; Postemergence, 31 g ai/ha) | Pigweed plant response rating (0 to 100 scale) [12, 20] | Ragweed plant response rating (0 to 100 scale) ([13]; Postemergence, 31 g ai/ha) | other results |
| --- | --- | --- | --- | --- | --- | --- | --- | --- | --- | --- | --- | --- | --- | --- | --- | --- | --- | --- | --- | --- | --- |
| CCO/N=C(/c1c(O)c(Cl)nn(C)c1=O)c1cc(Br)cc2ccccc12 [Compound 236] | 90 | 80 | 10 | 0 | 20 | 70 | 90 | 0 | 30 | 20 | 30 | 60 | 90 | 90 | 100 | 30 | 50 | 20 | 60 | 100 | Ryegrass, Italian plant response rating (0 to 100 scale) [1, 18]: 0; Ryegrass, Italian plant response rating (0 to 100 scale) [1, 19]: 20; Barnyardgrass plant response rating (0 to 100 scale) [2, 19]: 90; Foxtail, Giant plant response rating (0 to 100 scale) [3, 19]: 100; Kochia plant response rating (0 to 100 scale) (kochia (Bassia scoparia) [4]; [18]): 0; Kochia plant response rating (0 to 100 scale) (kochia (Bassia scoparia) [4]; [19]): 40; Pigweed plant response rating (0 to 100 scale) [5, 19]: 70; Ragweed plant response rating (0 to 100 scale) [13, 20]: 100; Wheat plant response rating (0 to 100 scale) ([14]; Postemergence, 31 g ai/ha): 0; Wheat plant response rating (0 to 100 scale) [14, 20]: 0; Plant response rating, Barnyardgrass (Flood) [15]: 35; Plant response rating, Ducksalad (Flood) [16]: 70; Plant response rating, Rice (Flood) (rice (Oryza sativa)): 0; Plant response rating, Sedge, Umbrella (Flood) [17]: 85 |
| CO/N=C(\c1c(OC(C)=O)c(Cl)nn(C)c1=O)c1cc(Br)cc2ccccc12 [Compound 231] | 60 | 30 | 40 | 0 | 10 | 30 | 70 | 10 | 20 | 0 | 20 | 30 | 70 | 70 | 100 | 10 | 20 | 20 | 60 | 100 | Ryegrass, Italian plant response rating (0 to 100 scale) [1, 19]: 0; Barnyardgrass plant response rating (0 to 100 scale) [2, 19]: 90; Foxtail, Giant plant response rating (0 to 100 scale) [3, 19]: 90; Kochia plant response rating (0 to 100 scale) (kochia (Bassia scoparia) [4]; [19]): 0; Pigweed plant response rating (0 to 100 scale) [5, 19]: 50; Ragweed plant response rating (0 to 100 scale) [13, 20]: 100; Wheat plant response rating (0 to 100 scale) ([14]; Postemergence, 31 g ai/ha): 0; Wheat plant response rating (0 to 100 scale) [14, 20]: 0; Plant response rating, Barnyardgrass (Flood) [15]: 15; Plant response rating, Ducksalad (Flood) [16]: 75; Plant response rating, Rice (Flood) (rice (Oryza sativa)): 0; Plant response rating, Sedge, Umbrella (Flood) [17]: 30 |
| Cc1nn(C)c(=O)c(C(=NOCC2CC2)c2cc(Cl)cc(Cl)c2Cl)c1O [Compound 182] | 0 | 70 | 0 | 70 | 100 | 50 | 60 | 10 | 10 | 0 | 30 | 70 | 90 | 70 | 100 | 10 | 70 | 10 | 50 | 40 | Ryegrass, Italian plant response rating (0 to 100 scale) ([1]; 125 g ai/ha): 100; Ryegrass, Italian plant response rating (0 to 100 scale) [1, 18]: 30; Barnyardgrass plant response rating (0 to 100 scale) ([2]; 125 g ai/ha): 90; Foxtail, Giant plant response rating (0 to 100 scale) ([3]; 125 g ai/ha): 100; Kochia plant response rating (0 to 100 scale) (kochia (Bassia scoparia) [4]; 125 g ai/ha): 0; Kochia plant response rating (0 to 100 scale) (kochia (Bassia scoparia) [4]; [18]): 0; Pigweed plant response rating (0 to 100 scale) ([5]; 125 g ai/ha): 70; Ragweed plant response rating (0 to 100 scale) [13, 20]: 100; Wheat plant response rating (0 to 100 scale) ([14]; Postemergence, 31 g ai/ha): 0; Wheat plant response rating (0 to 100 scale) [14, 20]: 70; Plant response rating, Barnyardgrass (Flood) [15]: 0; Plant response rating, Ducksalad (Flood) [16]: 0; Plant response rating, Rice (Flood) (rice (Oryza sativa)): 0; Plant response rating, Sedge, Umbrella (Flood) [17]: 0 |
| CON=C(c1cc(Cl)cc(Cl)c1)c1c(O)c(C)nn(C)c1=O [Compound 188] | 30 | 90 | 70 | 80 | 100 | 30 | 60 | 40 | 30 | 0 | 30 | 40 | 90 | 100 | 100 | 80 | 100 | 80 | 90 | 60 | Ryegrass, Italian plant response rating (0 to 100 scale) ([1]; 125 g ai/ha): 100; Ryegrass, Italian plant response rating (0 to 100 scale) [1, 18]: 80; Barnyardgrass plant response rating (0 to 100 scale) ([2]; 125 g ai/ha): 100; Foxtail, Giant plant response rating (0 to 100 scale) ([3]; 125 g ai/ha): 100; Kochia plant response rating (0 to 100 scale) (kochia (Bassia scoparia) [4]; 125 g ai/ha): 100; Kochia plant response rating (0 to 100 scale) (kochia (Bassia scoparia) [4]; [18]): 10; Pigweed plant response rating (0 to 100 scale) ([5]; 125 g ai/ha): 90; Ragweed plant response rating (0 to 100 scale) [13, 20]: 100; Wheat plant response rating (0 to 100 scale) ([14]; Postemergence, 31 g ai/ha): 10; Wheat plant response rating (0 to 100 scale) [14, 20]: 50; Plant response rating, Barnyardgrass (Flood) [15]: 15; Plant response rating, Ducksalad (Flood) [16]: 70; Plant response rating, Rice (Flood) (rice (Oryza sativa)): 0; Plant response rating, Sedge, Umbrella (Flood) [17]: 85 |
| CCO/N=C(\c1cc(Cl)cc(Cl)c1Cl)c1c(O)c(C)nn(C)c1=O [Compound 186] | 40 | 100 | 50 | 80 | 100 | 30 | 70 | 10 | 20 | 0 | 20 | 60 | 90 | 90 | 100 | 50 | 50 | 20 | 90 | 50 | Ryegrass, Italian plant response rating (0 to 100 scale) ([1]; 125 g ai/ha): 100; Ryegrass, Italian plant response rating (0 to 100 scale) [1, 18]: 40; Barnyardgrass plant response rating (0 to 100 scale) ([2]; 125 g ai/ha): 90; Foxtail, Giant plant response rating (0 to 100 scale) ([3]; 125 g ai/ha): 100; Kochia plant response rating (0 to 100 scale) (kochia (Bassia scoparia) [4]; 125 g ai/ha): 0; Kochia plant response rating (0 to 100 scale) (kochia (Bassia scoparia) [4]; [18]): 0; Pigweed plant response rating (0 to 100 scale) ([5]; 125 g ai/ha): 100; Ragweed plant response rating (0 to 100 scale) [13, 20]: 90; Wheat plant response rating (0 to 100 scale) ([14]; Postemergence, 31 g ai/ha): 20; Wheat plant response rating (0 to 100 scale) [14, 20]: 70; Plant response rating, Barnyardgrass (Flood) [15]: 0; Plant response rating, Ducksalad (Flood) [16]: 0; Plant response rating, Rice (Flood) (rice (Oryza sativa)): 0; Plant response rating, Sedge, Umbrella (Flood) [17]: 0 |
